Laboratory results: ChEMBL document CHEMBL3507680, “University of Dundee, Gates Library screen for HepG2 cell viability”

Test: Human HepG2 cell viability assay in 384 well format
Type: toxicity, cell-based
Set-up: dose 125 nL, time 70.5 hour; concentration not given beside the values
Details: HepG2 cells, read-out: Inhibition

## O=C(c1cccs1)N1CCCn2c(nc(CN3CCCC3)cc2=O)C1
  cytotoxicity at 70.5 h: -0.229%

## O=C(c1ccoc1)N1C[C@H]2CC[C@@]3(N=C(c4ccccc4)NC3=O)[C@H]2C1
  cytotoxicity at 70.5 h: 0.375%

## Cc1cccc(CN2C[C@@H]3CN(C(=O)c4ccnnc4)C[C@@H]3C2=O)c1
  cytotoxicity at 70.5 h: -2.38%

## CC(=O)N1CCOC2(CCCN(Cc3ccc(N(C)C)cc3)C2)C1 (stereo not drawn)
  cytotoxicity at 70.5 h: -2.02%

## CC(=O)NCC(=O)NCC1Cn2nnc(-c3cccc(F)c3)c2CO1 (stereo not drawn)
  cytotoxicity at 70.5 h: -0.435%

## CCN1C[C@@H]2CN(C(=O)c3ccsc3)C[C@@H]2C1=O
  cytotoxicity at 70.5 h: -0.46%

## Cc1cccc(CN2CCCC3(CCN(c4cccnc4)C3=O)C2)n1 (stereo not drawn)
  cytotoxicity at 70.5 h: -3.53%

## Cc1cccc(CN2C[C@@H]3CN(C(=O)c4conc4C)C[C@@H]3C2=O)c1
  cytotoxicity at 70.5 h: -3.16%

## CC(=O)N1CC2(CCN(C(=O)c3ccoc3)C2)C1
  cytotoxicity at 70.5 h: -2.66%

## CC(=O)N1[C@H](Cn2cncn2)C[C@@H]2CN(c3ncccn3)CC[C@@H]21
  cytotoxicity at 70.5 h: 1.33%

## O=C(c1ccnnc1)N1CC[C@H](OCC2CC2)[C@@H]1Cc1ccncc1
  cytotoxicity at 70.5 h: -1.15%

## Cc1ncnc2c1CCN(C(=O)c1cnccn1)CC2
  cytotoxicity at 70.5 h: -0.588%

## O=C(C1CC=CC1)N1CCC2(CCC(=O)N2Cc2cccc(F)c2)CC1
  cytotoxicity at 70.5 h: 2.09%

## CO[C@@H]1CCN(c2ncccn2)[C@H]1Cc1ccccc1
  cytotoxicity at 70.5 h: 1.42%

## CN1CCN(Cc2cn3c(n2)CN(C(=O)c2ccco2)CC3)CC1
  cytotoxicity at 70.5 h: 1.76%

## COCCN1C[C@H]2CCN(c3ncccn3)CC[C@H]2S1(=O)=O
  cytotoxicity at 70.5 h: -3.17%

## O=C(C1CC=CC1)N1CCC2(CCN(Cc3cccc(F)c3)CC2)C1
  cytotoxicity at 70.5 h: -3.05%

## CCN(CC)CCN1CCO[C@H]2[C@@H](OCc3ccccn3)CC[C@@H]21
  cytotoxicity at 70.5 h: -4.9%

## Cc1ccc(CN2CCOC3(CCCN(C(=O)c4ccco4)C3)C2)o1 (stereo not drawn)
  cytotoxicity at 70.5 h: -5.05%

## O=C(C1CC=CC1)N1CCc2ncnc(-c3ccncc3)c2CC1
  cytotoxicity at 70.5 h: 0.995%

## COCC(=O)N1CC[C@@H]2CN(Cc3ccccc3)S(=O)(=O)[C@@H]2CC1
  cytotoxicity at 70.5 h: -5.37%

## CC(C)(C)C(=O)N1CCC2(COCc3cnc(N4CCOCC4)nc32)C1 (stereo not drawn)
  cytotoxicity at 70.5 h: -19.1%

## O=c1cc(CN2CCCC2)nc2n1CCCN(Cc1ccsc1)C2
  cytotoxicity at 70.5 h: -17.6%

## Cn1cc(CN2CC[C@H]3OCC[C@@H](C(=O)N4CCCCO4)[C@@H]3C2)cn1
  cytotoxicity at 70.5 h: -15.8%

## CCc1ncnc2c1CCN(C(=O)Cc1ccccn1)CC2
  cytotoxicity at 70.5 h: -19.9%

## O=C1COC2(CCN(Cc3ccccn3)CC2)CN1CC1CC1
  cytotoxicity at 70.5 h: -0.792%

## Cn1cnc2c1C(COCC1CC1)CN(Cc1ccsc1)C2 (stereo not drawn)
  cytotoxicity at 70.5 h: 5.05%

## O=C(Cc1ccsc1)NCC1OCCc2cn(CC3CC3)nc21 (stereo not drawn)
  cytotoxicity at 70.5 h: -2.21%

## Cn1cc(C[C@H]2[C@@H](O)CCN2C(=O)C2CC=CC2)cn1
  cytotoxicity at 70.5 h: 7.47%

## CNC(=O)[C@H]1C[C@@H]2CN(C(=O)Nc3ccc(F)cc3)C[C@H]1O2
  cytotoxicity at 70.5 h: -0.584%

## O=C(Nc1ccc(F)cc1)N1C[C@H]2C[C@H](C(=O)N3CCOCC3)[C@@H](C1)O2
  cytotoxicity at 70.5 h: -1.46%

## Cc1nc([C@@H]2C[C@@H]3CCN(C(=O)c4ccnnc4)C[C@H]3O2)sc1C
  cytotoxicity at 70.5 h: 5.38%

## Cn1cc2c(n1)C(CNC(=O)Cc1ccsc1)OCC2 (stereo not drawn)
  cytotoxicity at 70.5 h: -6.77%

## CNC(=O)[C@@]12CCCN(c3ncccn3)[C@@H]1CN(C(=O)NC(C)C)C2
  cytotoxicity at 70.5 h: 34.2%

## O=C1NCC[C@]12CN(Cc1ccoc1)C[C@H]2c1ccccc1
  cytotoxicity at 70.5 h: 16.2%

## CNC(=O)C1Cn2ccnc2C2(CCN(CCF)CC2)O1 (stereo not drawn)
  cytotoxicity at 70.5 h: -13.9%

## CC(C)CN1CCCC2(CCN(C(=O)c3cnccn3)C2)C1 (stereo not drawn)
  cytotoxicity at 70.5 h: -14.6%

## COCC1CC2(CCN(C(=O)c3ccc(OC)c(Cl)c3)CC2)CO1 (stereo not drawn)
  cytotoxicity at 70.5 h: -8.41%

## O=C(c1ccsc1)N1C[C@@H]2C[C@@H](c3nnc(C4CC4)o3)O[C@@H]2C1
  cytotoxicity at 70.5 h: -8.35%

## O=C(CCc1ccccc1)N1CCn2cc(Cn3cncn3)nc2C1
  cytotoxicity at 70.5 h: -11.8%

## CO[C@@H]1CC[C@H]2[C@H]1OCCN2C(=O)C1=CCCC1
  cytotoxicity at 70.5 h: -20.1%

## COc1ccc2c(c1)C1(CCN(Cc3ccncc3)CC1)N(C)CC2
  cytotoxicity at 70.5 h: -10.8%

## COCC1CC2(CCN(C(=O)c3cccc(C)c3)CC2)CO1 (stereo not drawn)
  cytotoxicity at 70.5 h: -12.6%

## CCOc1ccc(S(=O)(=O)N(C)Cc2cnn(CC)c2)cc1
  cytotoxicity at 70.5 h: -2.15%

## Cc1c(Cl)c(C(=O)NCc2ccc(F)cc2)nn1C
  cytotoxicity at 70.5 h: -5.73%

## O=C(CCn1nc(C(F)(F)F)c(Cl)c1C1CC1)NN1CCOCC1
  cytotoxicity at 70.5 h: -1.82%

## Cc1c(Cl)c(C(F)(F)F)nn1C(C)C(=O)NN1CCN(C)CC1 (stereo not drawn)
  cytotoxicity at 70.5 h: -3.23%

## CCC(=O)c1ccccc1NN1c2ccccc2C(=O)C1(C)OC (stereo not drawn)
  cytotoxicity at 70.5 h: 4.64%

## CN1CCCc2c1nc1c(c2N)CCC1
  cytotoxicity at 70.5 h: -7.63%

## CCn1c(=O)c2cc(S(N)(=O)=O)ccc2n(CC)c1=O
  cytotoxicity at 70.5 h: -2.07%

## Fc1cccc(Cl)c1CNCc1ccccn1
  cytotoxicity at 70.5 h: -12.6%

## O=C(COCC(=O)N1CCCCCC1)NCc1cccc(Br)c1
  cytotoxicity at 70.5 h: 0.154%

## C/N=C1/c2cc3cc(OC)ccc3n2CCN1C
  cytotoxicity at 70.5 h: -0.795%

## O=c1c2c(ncn1CCCO)nc1n2CCC1
  cytotoxicity at 70.5 h: -1.36%

## Fc1cccc(-c2nnn3c2COC(CNCc2ccsc2)C3)c1 (stereo not drawn)
  cytotoxicity at 70.5 h: 0.277%

## CNC(=O)[C@H]1C[C@@H]2CN(S(=O)(=O)c3cccc(C)c3)C[C@@H]2N1C
  cytotoxicity at 70.5 h: 2.15%

## CNC(=O)[C@H]1C[C@@H]2CN(S(=O)(=O)c3ccc(F)cc3)C[C@@H]2N1C
  cytotoxicity at 70.5 h: 5.56%

## CNC(=O)[C@H]1C[C@@H]2CN(S(=O)(=O)c3ccc(C)cc3)C[C@@H]2N1C
  cytotoxicity at 70.5 h: -1.06%

## CNC(=O)[C@H]1C[C@@H]2CN(S(=O)(=O)c3cccc(F)c3)C[C@@H]2N1C
  cytotoxicity at 70.5 h: 1.47%

## CN(C)Cc1cc(=O)n2c(n1)CN(C(=O)Cc1cccs1)CCC2
  cytotoxicity at 70.5 h: 1.23%

## Cc1ccc2c(c1)C1(CC2)CCN(CC(=O)O)CC1
  cytotoxicity at 70.5 h: 5.44%

## O=C([C@H]1COC[C@H]2CN(C3CCCC3)C[C@H]21)N1CCCO1
  cytotoxicity at 70.5 h: 41.4%

## CC1CCN(C(=O)[C@@H]2CC[C@@H]3[C@@H](CCN3c3ncc(F)cn3)O2)CC1
  cytotoxicity at 70.5 h: -2.26%

## O=C(c1ccc[nH]1)N1CC[C@@H](OCC2CC2)[C@@H]1Cc1cccnc1
  cytotoxicity at 70.5 h: 0.146%

## COCC(=O)N1CC[C@@H](OCC2CC2)[C@@H]1Cc1cccnc1
  cytotoxicity at 70.5 h: 0.787%

## O=C([C@@H]1COC[C@H]2CN(C3CCOCC3)C[C@H]21)N1CCOCC1
  cytotoxicity at 70.5 h: -1.42%

## CC(C)CN1CCC2(CCN(Cc3nccs3)CC2)C1=O
  cytotoxicity at 70.5 h: 0.492%

## COCC(=O)N1C[C@H]2CCCC(OCc3cccnc3)[C@H]2C1 (stereo partly drawn)
  cytotoxicity at 70.5 h: -6.29%

## O=C(NCC1CC1)[C@@H]1CCO[C@@H]2CCN(Cc3ccc(F)cc3)C[C@H]21
  cytotoxicity at 70.5 h: -4.34%

## O=S(=O)(C1CC1)N1C[C@H]2CCC[C@@]2(COc2ccccn2)C1
  cytotoxicity at 70.5 h: -19.4%

## CC1c2ncc(COc3cccnc3)n2CCN1C(=O)Cc1ccco1 (stereo not drawn)
  cytotoxicity at 70.5 h: -13.8%

## COCCN1CC[C@H](O)[C@@H]1Cc1ccccc1
  cytotoxicity at 70.5 h: -16.7%

## Cn1cc(N2CC3(CCN(CC4CCOCC4)CC3)OCC2=O)cn1
  cytotoxicity at 70.5 h: -17.2%

## CC1c2ncc(COc3cccnc3)n2CCN1C(=O)C1=CCCC1 (stereo not drawn)
  cytotoxicity at 70.5 h: -9.18%

## O=C([C@H]1CCCO1)N1CCCC2(CCN(Cc3ccncc3)C2=O)C1 (stereo partly drawn)
  cytotoxicity at 70.5 h: 22.1%

## CN(C)S(=O)(=O)N1C[C@H](Oc2cccnc2)[C@H]2OCCC[C@H]21
  cytotoxicity at 70.5 h: 31.1%

## CNC(=O)[C@@]12CCO[C@@H]1CCN(Cc1scnc1C)C2
  cytotoxicity at 70.5 h: 4.42%

## Cn1ccnc1CN1CCC2(CC(=O)N(c3cccc(F)c3)C2)C1 (stereo not drawn)
  cytotoxicity at 70.5 h: -4.42%

## COc1ccc(CN2CCn3cc(Cn4cccn4)nc3C2)cc1
  cytotoxicity at 70.5 h: 3.13%

## Cc1ccc(C(=O)N2CCn3cc(CN(C)Cc4ccco4)nc3C2)o1
  cytotoxicity at 70.5 h: 8.16%

## Cc1nc(CN2CCC3(CCN(c4ncc(F)cn4)C3)C2=O)cs1 (stereo not drawn)
  cytotoxicity at 70.5 h: 4.85%

## CN(C)C(=O)N1C[C@H](Oc2ccccn2)[C@H]2OCCC[C@H]21
  cytotoxicity at 70.5 h: -7.83%

## Cc1cc(CN2CC[C@H]3OCC[C@@]3(C(=O)NC(C)C)C2)no1
  cytotoxicity at 70.5 h: 3.85%

## CNC(=O)[C@H]1C[C@H]2OCC[C@H]2N(Cc2cccc3ccccc23)C1
  cytotoxicity at 70.5 h: -6.96%

## Cc1ccoc1C(=O)N1C[C@H]2CCC[C@@]2(COCc2ccncc2)C1
  cytotoxicity at 70.5 h: 5.44%

## c1cnn(Cc2cn3c(n2)CN(Cc2nccs2)CC3)c1
  cytotoxicity at 70.5 h: -3.15%

## Cn1ccnc1CN1CCC2(CC1)CC(NC(=O)c1ccccn1)CO2 (stereo not drawn)
  cytotoxicity at 70.5 h: 8.41%

## Cn1cccc1CN1CCC2(CCCN(C(=O)c3cnccn3)C2)C1 (stereo not drawn)
  cytotoxicity at 70.5 h: 17%

## Cc1ccc(C(=O)N2CCO[C@H]3[C@@H](OCc4ccccn4)CC[C@@H]32)o1
  cytotoxicity at 70.5 h: -19.5%

## COCC1CN(C(=O)COc2ccccc2)Cc2cn(C)nc21 (stereo not drawn)
  cytotoxicity at 70.5 h: -18%

## O=S(=O)(C1CC1)N1CC[C@]2(C[C@@H](Oc3ccccn3)CO2)C1
  cytotoxicity at 70.5 h: -18.9%

## O=C1CC2(CCN(Cc3ccccn3)C2)CN1c1cccnc1 (stereo not drawn)
  cytotoxicity at 70.5 h: 1.41%

## O=C1N(c2ccsc2)CCC12CCCN(Cc1ccccn1)C2 (stereo not drawn)
  cytotoxicity at 70.5 h: -4.36%

## Fc1ccc(CN2CCO[C@H]3[C@H](Oc4ccccn4)CC[C@@H]32)cc1
  cytotoxicity at 70.5 h: 7.26%

## CC(=O)N1[C@H](Cn2cncn2)C[C@@H]2CN(Cc3ccccn3)CC[C@@H]21
  cytotoxicity at 70.5 h: 17.3%

## CC(C)N(C)[C@@H]1CCN(c2ncccn2)[C@H]1Cc1ccncc1
  cytotoxicity at 70.5 h: 1.38%

## CC(=O)N1[C@H](Cn2cncn2)C[C@@H]2CN(Cc3cccnc3)CC[C@@H]21
  cytotoxicity at 70.5 h: -2.89%

## COc1ncccc1CN1Cc2nnn(C)c2C(COCC2CC2)C1 (stereo not drawn)
  cytotoxicity at 70.5 h: 1.61%

## Fc1cccc(N2CCCC3(C2)CN(c2ncccn2)CCO3)c1 (stereo not drawn)
  cytotoxicity at 70.5 h: -0.813%

## COCCN1C[C@@H]2CN(Cc3cccc(F)c3)CCC[C@]2(C(=O)O)C1
  cytotoxicity at 70.5 h: 20.7%

## Cc1ccc(N2CC3(COCCN(Cc4cccnc4)C3)OCC2=O)s1 (stereo not drawn)
  cytotoxicity at 70.5 h: 26.6%

## Cc1cccc(CN2CCO[C@H]3[C@H](Oc4ccccn4)CC[C@@H]32)n1
  cytotoxicity at 70.5 h: -1.62%

## CN1CCN(Cc2cn3c(n2)CN(C(=O)c2ccccn2)CC3)CC1
  cytotoxicity at 70.5 h: -2.89%
